Assay results taken from patent US5886190A, “Rapid synthesis and use of 18F-fluoromisonidazole and analogs” (priority 1997, dated 1999).
Several values for one entry are separate records, joined by “and”; a condition that tells them apart may be missing. Equal entries are not always repeated. Where two headings read alike, the source gives them in different places.

Key:
hypoxic cells = experiment: Selectivity to hypoxic cells (PET imaging, autoradiograms, biodistribution); conditions: in vivo
Method: (§1) The synthesis scheme for [^18 F]FETNIM is depicted in FIG. 6. Biodistribution studies of [^18 F]FETNIM were performed at 1, 2 and 4 hours in mammary tumor-bearing rats (10 μCi, iv, N=3/time interval). Autoradiograms were performed at 1 hour postinjection of [^18 F]FETNIM, and a comparison has been made with [^18 F]fluoromisonidazole (FMISO). Intratumoral oxygen tension measurements were performed using the Eppendorf computerized histographic system. Twenty to twenty-five pO2 measurements along each of 2 to 3 linear tracks were performed at 0.4 mm intervals on each tumor. PET imaging studies of [^18 F]FETNIM were performed in rabbits bearing V2 tumors (N=3, 4 mCI, iv) which were located on the right leg.
PET imaging was performed with a positron camera (Positron Corporation, Houston, Tex.). The tomograph has a field-of-view of 42 cm on transverse and 12 cm on coronal planes. The axial resolution on the reconstructed plane is 1.2 cm. […]
Female Fischer 344 rats (250-275 g) (Harlan, Inc., Indianapolis, Ind.) were inoculated with mammary tumor cells in the lumbar area using a 13762 tumor cell line (s.c. 10^5 cells/rat). […] The tissues were excised, weighed and counted for radioactivity. The percent of injected dose per gram of tissue weight was determined.

VX2 tumor = conditions: 4 mCi; 1 hour postinjection
Method: as §1
PET imaging was performed with a positron camera (Positron Corporation, Houston, Tex.). The tomograph has a field-of-view of 42 cm on transverse and 12 cm on coronal planes. The axial resolution on the reconstructed plane is 1.2 cm.
Three male New Zealand white rabbits each weighing 3 kg were inoculated at a single site in the right buttock area with a 0.5 ml suspension of minced VX2 tumor fragments (10^6 cells/rabbit). The tumors are maintained through serial animal passage and are available from the Department of Veterinary Medicine (The University of Texas M.D. Anderson Cancer Center, Houston, Tex.). […]

mammary tumor = experiment: Autoradiographic studies in tumor-bearing rats; conditions: 1 hour postinjection
Method: as §1
Female Fischer 344 mammary tumor-bearing rats (n=3) after receiving [^18 F]FETNIM (2 mCi, iv) were sacrificed at 1 h. […] The rats were sacrificed at 1 hour postinjection. The rat body was fixed in a carboxymethyl cellulose (4%) block. The frozen body in a block was mounted to a cryostat (LKB 2250 cryo-microtome, Ijamsville, Md.) and 40 μm coronal sections were made. The section was freeze dried, then mounted on a x-ray film (X-Omat AR, Kodak, Rochester, N.Y.) for 24 hours.

[1] = Hydrophilicity (from autoradiogram and chemistry); format: physicochemical; conditions: relative to comparator named in value
[2] = tested on: mammary tumor cells (13762 tumor cell line); conditions: for Tumor/blood count density ratio / Tumor/liver count density ratio / Tumor/muscle count density ratio / Blood, percent of injected dose/gram weight / Bone, percent of injected dose/gram weight / Kidney, percent of injected dose/gram weight / Liver, percent of injected dose/gram weight / Lung, percent of injected dose/gram weight / Muscle, percent of injected dose/gram weight / Spleen, percent of injected dose/gram weight / Tumor, percent of injected dose/gram weight: 10 μCi/rat iv, N = 3
Method: as §1
Female Fischer 344 rats (250-275 g) (Harlan, Inc., Indianapolis, Ind.) were inoculated with mammary tumor cells in the lumbar area using a 13762 tumor cell line (s.c. 10^5 cells/rat). […] Three groups of rats (N=3/group) were anesthetized with ketamine (10-15 mg/rat). The ^18 F-FETNIM reconstituted in 5% ethanol/saline was given to rats (10 μCi/rat, iv) and tissue distribution was conducted at 1h, 2h and 4h intervals. The tissues were excised, weighed and counted for radioactivity. The percent of injected dose per gram of tissue weight was determined.

patients = conditions: cited from earlier work; for Dose-limiting toxicity: clinical trials
cancer of the pharynx = conditions: cited from earlier work; for Radiosensitizer potency: human, in vivo; for Clinical benefit on addition: patients with high hemoglobin levels and cancer of the pharynx
[3] = in mice; cited from earlier work
[4] = 1 hour, listed as [^18 F] Fluoroerythronitroimidazole
[5] = 2 hour, listed as [^18 F] Fluoroerythronitroimidazole
[6] = 4 hour, listed as [^18 F] Fluoroerythronitroimidazole

## O=[N+]([O-])c1nccn1C[C@H](O)[C@H](O)CF [[^18 F]FETNIM, [^18 F]fluoroerythro-2-nitroimidazole]
Hypoxic cells
  Selectivity to hypoxic cells: selective to hypoxic cells
VX2 tumor
  SUV value of the tumor: greater than 10
Mammary tumor; 2 mCi iv
  Tumor visualization by autoradiography: the tumor could be visualized 1 hour postinjection
  Uptake in the center region of the tumor: lack of uptake
Mammary tumor
  Uptake in intestines and colon: high uptake
  Uptake in medullary of the kidney area: higher uptake
Mammary tumor; autoradiogram
  Differentiation of hypoxic versus necrotic regions in the tumor: could differentiate hypoxic versus necrotic regions in the tumor
[1]
  Hydrophilicity: more hydrophilic than [^18 F]FMISO
[1]; listed as [^18 F]fluoroerythronitroimidazole
  Hydrophilicity: more hydrophilic than misonidazole
[2]; 1, 2 and 4 h
  Tumor/muscle, tumor/blood and tumor/liver count density ratios, change with time: showed increases with time
[2]; 1 hour
  Tumor/blood count density ratio: 2.29±0.599
  Tumor/liver count density ratio: 1.7600 ± 0.4415
  Tumor/muscle count density ratio: 0.66±0.267
  Blood, percent of injected dose/gram weight: 0.3493 ± 0.02173% of Injected Dose/Gram Weight
  Bone, percent of injected dose/gram weight: 0.2570 ± 0.14% of Injected Dose/Gram Weight
  Kidney, percent of injected dose/gram weight: 0.8860 ± 0.00424% of Injected Dose/Gram Weight
  Liver, percent of injected dose/gram weight: 0.4530 ± 0.01493% of Injected Dose/Gram Weight
  Lung, percent of injected dose/gram weight: 0.3577 ± 0.00723% of Injected Dose/Gram Weight
  Muscle, percent of injected dose/gram weight: 1.2600 ± 0.08627% of Injected Dose/Gram Weight
  Spleen, percent of injected dose/gram weight: 0.3183 ± 0.02011% of Injected Dose/Gram Weight
  Tumor, percent of injected dose/gram weight: 0.7957 ± 0.2036% of Injected Dose/Gram Weight
[2]; [4]
  Tumor/blood count density ratio: 2.2900 ± 0.5994
  Tumor/muscle count density ratio: 0.6602 ± 0.2666
[2]; 2 hour
  Tumor/blood count density ratio: 2.41±0.567
  Tumor/liver count density ratio: 1.7700 ± 0.2561
  Tumor/muscle count density ratio: 2.11±0.347
  Blood, percent of injected dose/gram weight: 0.1950 ± 0.02828% of Injected Dose/Gram Weight
  Bone, percent of injected dose/gram weight: 0.0810 ± 0.00424% of Injected Dose/Gram Weight
  Kidney, percent of injected dose/gram weight: 0.5145 ± 0.02334% of Injected Dose/Gram Weight
  Liver, percent of injected dose/gram weight: 0.3123 ± 0.08225% of Injected Dose/Gram Weight
  Lung, percent of injected dose/gram weight: 0.2107 ± 0.05713% of Injected Dose/Gram Weight
  Muscle, percent of injected dose/gram weight: 0.2670 ± 0.09036% of Injected Dose/Gram Weight
  Spleen, percent of injected dose/gram weight: 0.2013 ± 0.05918% of Injected Dose/Gram Weight
  Tumor, percent of injected dose/gram weight: 0.5516 ± 0.1582% of Injected Dose/Gram Weight
[2]; [5]
  Tumor/blood count density ratio: 2.4100 ± 0.5672
  Tumor/muscle count density ratio: 2.1100 ± 0.3468
[2]; 4 hour
  Tumor/blood count density ratio: 8.0±2.42 and 8.02±2.420
  Tumor/liver count density ratio: 4.3300 ± 1.31
  Tumor/muscle count density ratio: 5.92±2.240
  Blood, percent of injected dose/gram weight: 0.0993 ± 0.01266% of Injected Dose/Gram Weight
  Bone, percent of injected dose/gram weight: 0.0753 ± 0.0157% of Injected Dose/Gram Weight
  Kidney, percent of injected dose/gram weight: 0.4663 ± 0.06866% of Injected Dose/Gram Weight
  Liver, percent of injected dose/gram weight: 0.1843 ± 0.02458% of Injected Dose/Gram Weight
  Lung, percent of injected dose/gram weight: 0.1027 ± 0.02122% of Injected Dose/Gram Weight
  Muscle, percent of injected dose/gram weight: 0.1377 ± 0.01893% of Injected Dose/Gram Weight
  Spleen, percent of injected dose/gram weight: 0.0953 ± 0.01401% of Injected Dose/Gram Weight
  Tumor, percent of injected dose/gram weight: 0.8113 ± 0.3377% of Injected Dose/Gram Weight
[2]; [6]
  Tumor/blood count density ratio: 8.0200 ± 2.42
  Tumor/muscle count density ratio: 5.9200 ± 2.24

## O=C(Cn1ccnc1[N+](=O)[O-])NCCO [etanidazole]
patients
  Dose-limiting toxicity: peripheral neuropathy that progressed to central nervous system toxicity if drug administration was not stopped
Cancer of the pharynx
  Radiosensitizer potency: potent radiosensitizers
  Clinical benefit on addition: great benefit

## COCC(O)Cn1ccnc1[N+](=O)[O-] (centres unmarked) [misonidazole]
patients
  Dose-limiting toxicity: peripheral neuropathy that progressed to central nervous system toxicity if drug administration was not stopped
patients; human, in vivo
  Most common side effect: peripheral sensory neuropathy of the hands and feet
patients; large single doses
  Toxicity after large single doses: convulsions
patients; small multiple doses
  Toxicity following small multiple doses: encephalopathies
[3]
  Dose which affects the neurotransmitter system: 0.76 mg/g
Cancer of the pharynx
  Radiosensitizer potency: potent radiosensitizers
  Clinical benefit on addition: great benefit
